From ChEMBL document CHEMBL1134805, “Cyclic imides as potent and selective alpha-1A adrenergic receptor antagonists” (Bioorg Med Chem Lett, 2001) come the findings set out here.

Data set [1] is described as follows: Half-life in rats. As to conditions: rat, in vivo. The class given is ADME, organism-based.
In data set [2] the target is T1, Alpha-1D adrenergic receptor (Homo sapiens, UniProt P25100).
T1 sequence (P25100 whole entry): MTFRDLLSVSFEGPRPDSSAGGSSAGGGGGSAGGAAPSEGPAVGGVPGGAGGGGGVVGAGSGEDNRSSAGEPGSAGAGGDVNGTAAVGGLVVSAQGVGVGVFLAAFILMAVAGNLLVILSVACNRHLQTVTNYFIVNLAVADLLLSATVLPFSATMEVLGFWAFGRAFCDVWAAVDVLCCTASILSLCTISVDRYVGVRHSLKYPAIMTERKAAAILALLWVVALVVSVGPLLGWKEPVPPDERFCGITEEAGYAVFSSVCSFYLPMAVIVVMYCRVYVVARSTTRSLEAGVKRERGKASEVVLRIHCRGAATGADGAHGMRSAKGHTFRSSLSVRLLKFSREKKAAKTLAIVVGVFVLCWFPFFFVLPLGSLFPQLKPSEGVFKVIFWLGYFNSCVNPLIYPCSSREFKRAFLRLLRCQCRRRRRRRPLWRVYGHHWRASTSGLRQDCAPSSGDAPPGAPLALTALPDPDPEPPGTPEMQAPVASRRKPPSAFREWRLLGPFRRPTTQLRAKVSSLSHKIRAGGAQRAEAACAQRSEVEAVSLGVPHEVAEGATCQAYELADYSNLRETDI
Description: In vitro binding affinity towards cloned human Alpha-1D adrenergic receptor.

Data set [3] is described as follows: Bioavailability in rat (Sprague-Dawley) (male) (dose 1 mg/kg i.v. and 3 mg/kg p.o.) measured from 0.3 to 6 hr. As to conditions: in vivo, po. The format is ADME, organism-based.
Data set [4] in a line: Half-life in dogs. The format is ADME, organism-based, Canis lupus familiaris. As to conditions: dog, in vivo.
The target in data set [5] is T2, Alpha-1B adrenergic receptor (Homo sapiens, UniProt P35368).
T2 sequence (P35368 whole entry): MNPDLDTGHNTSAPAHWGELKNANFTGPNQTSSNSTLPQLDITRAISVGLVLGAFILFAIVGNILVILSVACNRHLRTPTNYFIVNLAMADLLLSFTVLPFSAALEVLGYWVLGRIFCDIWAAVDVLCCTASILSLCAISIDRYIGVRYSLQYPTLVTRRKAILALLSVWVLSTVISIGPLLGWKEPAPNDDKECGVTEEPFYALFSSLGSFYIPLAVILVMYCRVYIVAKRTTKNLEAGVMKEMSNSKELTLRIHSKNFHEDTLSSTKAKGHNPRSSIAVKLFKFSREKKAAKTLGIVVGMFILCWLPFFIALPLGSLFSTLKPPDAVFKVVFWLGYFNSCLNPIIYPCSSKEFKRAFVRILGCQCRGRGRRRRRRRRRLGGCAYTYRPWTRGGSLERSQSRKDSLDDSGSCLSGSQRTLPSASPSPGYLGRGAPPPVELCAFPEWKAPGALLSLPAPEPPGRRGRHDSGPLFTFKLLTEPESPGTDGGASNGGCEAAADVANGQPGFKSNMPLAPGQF
Description: In vitro binding affinity towards cloned human Alpha-1B adrenergic receptor.

Data set [6] deals with T3, Alpha-1A adrenergic receptor (Homo sapiens, UniProt P35348).
T3 sequence (P35348 whole entry): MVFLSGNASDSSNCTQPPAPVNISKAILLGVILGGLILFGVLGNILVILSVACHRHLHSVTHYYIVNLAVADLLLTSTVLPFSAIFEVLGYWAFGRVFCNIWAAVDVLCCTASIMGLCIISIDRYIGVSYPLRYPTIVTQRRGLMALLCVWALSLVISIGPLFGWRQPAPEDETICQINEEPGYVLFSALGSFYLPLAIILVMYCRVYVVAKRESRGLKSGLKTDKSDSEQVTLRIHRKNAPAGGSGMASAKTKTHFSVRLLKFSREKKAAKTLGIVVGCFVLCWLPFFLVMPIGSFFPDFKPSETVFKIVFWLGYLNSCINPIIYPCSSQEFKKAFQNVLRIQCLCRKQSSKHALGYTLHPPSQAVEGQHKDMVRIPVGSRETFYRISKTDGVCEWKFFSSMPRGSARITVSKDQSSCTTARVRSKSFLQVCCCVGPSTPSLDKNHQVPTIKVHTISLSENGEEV
Description: In vitro binding affinity towards cloned human Alpha-1A adrenergic receptor.

A short description of data set [7]: Bioavailability in dog (Beagle) (male) (dose 3 mg/kg i.v. and 10 mg/kg p.o.) measured from 1 to 24 hr. The format is ADME, organism-based, Canis lupus familiaris. As to conditions: in vivo, po.

Molecules are shown by their SMILES.

`Cc1ccc(C2(c3ccc(C)cc3)CC(=O)N(CCCN3CCC(C#N)(c4ccccc4C)CC3)C2=O)cc1`: the results for the half-life in data set [1] and in data set [4] were 2.5 h and 1.3 h, respectively. Also, the Ki was 1.5 µM in data set [2], 1.9 µM in data set [5] and 0.0017 µM in data set [6]. For the same compound, the bioavailability stood at 18% in data set [3] and 8% in data set [7].

With `Cc1ccc(C2(c3ccc(C)cc3)OC(=O)N(CCCN3CCC(C#N)(c4ccccc4C)CC3)C2=O)cc1`, the figures for the Ki in data set [2], in data set [5] and in data set [6] were more than 5 µM, more than 2 µM and 0.077 µM, respectively.

`COC(=O)C1(c2ccccc2)CCN(CCCNC(=O)C(c2ccc(C)cc2)c2ccc(C)cc2)CC1`: the values for the Ki in data set [2], in data set [5] and in data set [6] were 0.975 µM, 0.17 µM and 0.017 µM, respectively.

In data set [1], `Cc1ccc(C(O)(C(=O)NCCCN2CCC(C#N)(c3ccccc3C)CC2)c2ccc(C)cc2)cc1` had a half-life of 1.3 h. For the same compound, the Ki in data set [2] was 1.5 µM; in data set [5] it was 0.57 µM; in data set [6], 0.002 µM. Also, the bioavailability in data set [3] was less than 1%.

As for `Cc1ccc(C2(c3ccc(C)cc3)CC(=S)N(CCCN3CCC(C#N)(c4ccccc4Cl)CC3)C2=O)cc1`, the Ki in data set [2] was more than 5 µM; in data set [5], more than 2 µM; in data set [6], 0.22 µM.

For `Cc1ccc(C(O)(C(=O)NCCCN2CCC(C#N)(c3ccccc3)CC2)c2ccc(C)cc2)cc1`, the values for the inhibition constant Ki in data set [2], in data set [5] and in data set [6] were 4.8 µM, 1.8 µM and 0.0057 µM, respectively.

Consider `Cc1ccc(C2(c3ccc(C)cc3)CC(=O)N(CCCN3CCC(C#N)(c4ccccc4Cl)CC3)C2=O)cc1`, for which the half-life in data set [1] is 0.66 h; in data set [4], 1.7 h. Moreover, the Ki was 0.22 µM in data set [2], 0.098 µM in data set [5] and 0.00048 µM in data set [6]. Besides, the bioavailability in data set [3] came to 19%; in data set [7], 11%.

Regarding `Cc1ccc(C2(c3ccc(C)cc3)CC(=O)N(CC(O)CN3CCC(C#N)(c4ccccc4C)CC3)C2=O)cc1` (centres undefined), the Ki came out at 4.1 µM in data set [2], 1.5 µM in data set [5] and 0.0097 µM in data set [6].
